From PubChem BioAssay (NCI)
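Method: 48-hour compound exposure of cells in 96-well plates, five concentrations, linear interpolation of endpoints. At the GI50, growth is halved. TGI: concentration producing complete growth inhibition.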

Assays:
Test in all cases: NCI anticancer screen, dose series, 48 h
[1] = system: SK-OV-3 ovarian
[2] = system: MDA-MB-231 breast
[3] = system: COLO 205 colon
[4] = system: U251 CNS
[5] = system: SK-MEL-28 melanoma
[6] = system: UACC-62 melanoma
[7] = system: SN12C renal
[8] = system: CAKI-1 renal
[9] = system: SF-268 CNS
[10] = system: KM12 colon
[11] = system: OVCAR-5 ovarian
[12] = system: K-562 leukemia
[13] = system: MOLT-4 leukemia
[14] = system: SW-620 colon
[15] = system: DU-145 prostate
[16] = system: SNB-75 CNS
[17] = system: IGROV1 ovarian
[18] = system: UACC-257 melanoma
[19] = system: RXF 393 renal
[20] = system: SK-MEL-5 melanoma
[21] = system: PC-3 prostate
[22] = system: OVCAR-3 ovarian
[23] = system: NCI/ADR-RES ovarian
[24] = system: UO-31 renal
[25] = system: HL-60(TB) leukemia
[26] = system: HCC-2998 colon
[27] = system: HCT-116 colon
[28] = system: HS 578T breast
[29] = system: MDA-MB-435
[30] = system: NCI-H226 lung
[31] = system: SNB-19 CNS
[32] = system: 786-0 renal
[33] = system: LOX IMVI melanoma
[34] = system: ACHN renal
[35] = system: A549 NSCLC
[36] = system: SF-539 CNS
[37] = system: SR leukemia
[38] = system: OVCAR-8 ovarian
[39] = system: A498 renal
[40] = system: SF-295 CNS
[41] = system: BT-549 breast
[42] = system: SK-MEL-2 melanoma
[43] = system: HCT-15 colon
[44] = system: MCF7 breast
[45] = system: HT29 colon
[46] = system: CCRF-CEM leukemia
[47] = system: NCI-H460 lung
[48] = system: RPMI-8226 leukemia
[49] = system: HOP-62 NSCLC
[50] = system: NCI-H522 lung
[51] = system: M14 melanoma
[52] = system: OVCAR-4 ovarian
[53] = system: TK-10 renal

SMILES: O=C1C=C(Nc2ccc([N+](=O)[O-])cc2)c2ccccc2C1=O
- GI50 [1]: 11.6 µM
- TGI [1]: 27.1 µM
- GI50 [2]: 1720 nM
- TGI [2]: 13.2 µM
- GI50 [3]: 17.4 µM
- TGI [3]: 34.8 µM
- GI50 [4]: 3.07 µM
- TGI [4]: 12.9 µM
- GI50 [5]: 3750 nM
- TGI [5]: 16.6 µM
- GI50 [6]: 1900 nM
- TGI [6]: 5.88 µM
- GI50 [7]: 3.92 µM
- TGI [7]: 15.1 µM
- GI50 [8]: 3.87 µM
- TGI [8]: 19 µM
- GI50 [9]: 5.39 µM
- TGI [9]: 20.6 µM
- GI50 [10]: 3.3 µM
- TGI [10]: 16.4 µM
- GI50 [11]: 13.3 µM
- TGI [11]: 27.5 µM
- GI50 [12]: 569 nM
- TGI [12]: 15.3 µM
- GI50 [13]: 3.55 µM
- TGI [13]: 12.7 µM
- GI50 [14]: 2470 nM
- TGI [14]: 15.5 µM
- GI50 [15]: 6.94 µM
- TGI [15]: 19.6 µM
- GI50 [16]: 1190 nM
- TGI [16]: 9.91 µM
- GI50 [17]: 5.99 µM
- TGI [17]: 20.8 µM
- GI50 [18]: 3140 nM
- TGI [18]: 13.8 µM
- GI50 [19]: 6.6 µM
- TGI [19]: 22.5 µM
- GI50 [20]: 1560 nM
- TGI [20]: 3470 nM
- GI50 [21]: 3700 nM
- TGI [21]: 47.1 µM
- GI50 [22]: 2070 nM
- TGI [22]: 7.03 µM
- GI50 [23]: 2.93 µM
- TGI [23]: 29.3 µM
- GI50 [24]: 1850 nM
- TGI [24]: 12.5 µM
- GI50 [25]: 2670 nM
- TGI [25]: 7.19 µM
- GI50 [26]: 9.09 µM
- TGI [26]: 22.4 µM
- GI50 [27]: 2790 nM
- TGI [27]: 12.4 µM
- GI50 [28]: 1780 nM
- TGI [28]: 9.96 µM
- GI50 [29]: 392 nM
- TGI [29]: 1410 nM
- GI50 [30]: 12.6 µM
- TGI [30]: 28.1 µM
- GI50 [31]: 4.71 µM
- TGI [31]: 18.1 µM
- GI50 [32]: 11.6 µM
- TGI [32]: 33.8 µM
- GI50 [33]: 2340 nM
- TGI [33]: 7.47 µM
- GI50 [34]: 4300 nM
- TGI [34]: 17.7 µM
- GI50 [35]: 3960 nM
- TGI [35]: 16.5 µM
- GI50 [36]: 3.5 µM
- TGI [36]: 14.7 µM
- GI50 [37]: 2550 nM
- TGI [37]: > 100 µM
- GI50 [38]: 2740 nM
- TGI [38]: 12.6 µM
- GI50 [39]: 1470 nM
- TGI [39]: 6.75 µM
- GI50 [40]: 4.93 µM
- TGI [40]: 18 µM
- GI50 [41]: 3.56 µM
- TGI [41]: 14.5 µM
- GI50 [42]: 2120 nM
- TGI [42]: 8.47 µM
- GI50 [43]: 2420 nM
- TGI [43]: 15.4 µM
- GI50 [44]: 2490 nM
- TGI [44]: 13.9 µM
- GI50 [45]: 18.6 µM
- TGI [45]: 42.3 µM
- GI50 [46]: 3.9 µM
- TGI [46]: 26 µM
- GI50 [47]: 4.45 µM
- TGI [47]: 17.2 µM
- GI50 [48]: 3.37 µM
- TGI [48]: 22.4 µM
- GI50 [49]: 5.69 µM
- TGI [49]: 19.6 µM
- GI50 [50]: 2910 nM
- TGI [50]: 14.4 µM
- GI50 [51]: 3.49 µM
- TGI [51]: 16.7 µM
- GI50 [52]: 2070 nM
- TGI [52]: 11.2 µM

SMILES: CCCc1n(Cc2ccc3ccccc3c2)c2ccccc2[n+]1Cc1ccc2ccccc2c1
- GI50 [1]: 0.488 µM
- TGI [1]: 1.74 µM
- GI50 [2]: 301 nM
- TGI [2]: 1.42 µM
- GI50 [5]: 577 nM
- TGI [5]: 1.99 µM
- GI50 [6]: 318 nM
- TGI [6]: 1.42 µM
- GI50 [11]: 0.544 µM
- TGI [11]: 1.98 µM
- GI50 [14]: 429 nM
- TGI [14]: 1.7 µM
- GI50 [15]: 0.554 µM
- TGI [15]: 1.85 µM
- GI50 [18]: 295 nM
- TGI [18]: 1.12 µM
- GI50 [20]: 161 nM
- TGI [20]: 311 nM
- GI50 [21]: 354 nM
- TGI [21]: 1.55 µM
- GI50 [23]: 3.56 µM
- TGI [23]: 53.9 µM
- GI50 [24]: 1490 nM
- TGI [24]: 3 µM
- GI50 [29]: 314 nM
- TGI [29]: 1260 nM
- GI50 [32]: 1.06 µM
- TGI [32]: 2.56 µM
- GI50 [34]: 1250 nM
- TGI [34]: 2.57 µM
- GI50 [35]: 619 nM
- TGI [35]: 2.04 µM
- GI50 [53]: 461 nM
- TGI [53]: 1680 nM
- GI50 [39]: 356 nM
- TGI [39]: 1.98 µM
- GI50 [45]: 0.323 µM
- TGI [45]: 1.28 µM
